The results in this text go back to patent US9920010B2, “CXCR7 receptor modulators” (IDORSIA PHARMACEUTICALS LTD, priority 2013, dated 2018).

The experiment concerns the target T1, CXCR7 (Homo sapiens, UniProt P25106).
T1 construct: host or cells: CHO-K1 (PathHunter CHO-K1 CXCR7 b-arrestin cell line, stably transfected)
The experiment can be described thus: PathHunter CHO-K1 CXCR7 b-arrestin recruitment assay (CXCR7 agonistic activity). The experiment is classed as cell-based. The conditions noted are these: PathHunter CHO-K1 CXCR7 b-arrestin cell line. In a few lines: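 Stable CHO-K1 line with C-terminally ProLink-tagged CXCR7 and β-arrestin 2–EA fusion; β-arrestin recruitment restores β-gal activity, read by chemiluminescence after 1 h RT detection. Cells seeded 24 h, starved in OPTIMEM 3–4 h, exposed to compounds 90 min at 37 °C in HBSS/HEPES/BSA. Geometric-mean EC50 from repeated measurements.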
(Recruitment of arrestin is a read-out of receptor activation apart from second messengers.)

Structures are written as SMILES.

T1 sequence (P25106 whole entry): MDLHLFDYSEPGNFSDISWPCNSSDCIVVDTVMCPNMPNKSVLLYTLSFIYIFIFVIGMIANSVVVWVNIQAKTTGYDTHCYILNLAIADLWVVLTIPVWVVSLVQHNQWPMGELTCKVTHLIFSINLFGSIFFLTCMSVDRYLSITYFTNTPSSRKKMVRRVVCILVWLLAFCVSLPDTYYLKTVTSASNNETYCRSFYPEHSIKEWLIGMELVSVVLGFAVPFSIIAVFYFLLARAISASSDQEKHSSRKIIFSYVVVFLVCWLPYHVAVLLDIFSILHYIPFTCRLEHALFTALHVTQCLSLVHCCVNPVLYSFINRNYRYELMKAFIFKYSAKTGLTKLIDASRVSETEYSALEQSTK
T1 sequence (P32121 whole entry partner): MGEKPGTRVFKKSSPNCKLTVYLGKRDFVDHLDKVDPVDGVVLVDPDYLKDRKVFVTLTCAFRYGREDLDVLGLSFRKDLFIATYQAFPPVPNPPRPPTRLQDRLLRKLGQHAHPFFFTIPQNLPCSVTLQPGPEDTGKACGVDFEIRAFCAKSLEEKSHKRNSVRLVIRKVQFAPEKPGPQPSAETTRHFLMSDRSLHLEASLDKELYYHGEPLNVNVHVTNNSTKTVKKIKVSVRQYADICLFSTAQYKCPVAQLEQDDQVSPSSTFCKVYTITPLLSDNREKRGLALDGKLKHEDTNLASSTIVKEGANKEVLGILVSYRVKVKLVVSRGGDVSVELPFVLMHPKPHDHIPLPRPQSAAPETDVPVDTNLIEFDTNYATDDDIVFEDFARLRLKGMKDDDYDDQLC

What is called EC50 is the midpoint of the concentration-response curve. Higher therefore signals a less potent agent. With `CCN(Cc1ccccc1Cl)C(=O)CNc1cccc2c1CCN(CC1CC1)C2` [Example 66, N-(2-Chloro-benzyl)-2-(2-cyclopropylmethyl-1,2,3,4-tetrahydro-isoquinolin-5-ylamino)-N-ethyl-acetamide], the EC50 stood at 168 nM.

`CCOC(=O)CN(Cc1ccccc1)C(=O)/C=C/c1cccc2c1CCN(CC1CC1)C2` [compound 144, {Benzyl-[(E)-3-(2-cyclopropylmethyl-1,2,3,4-tetrahydro-isoquinolin-5-yl)-acryloyl]-amino}-acetic acid ethyl ester] yielded an EC50 of 22 nM.

Regarding `CCN1CCc2cccc(NCC(=O)N(CCN(C)C)Cc3cccc(Cl)c3)c2C1` [compound 501], the midpoint of the response, the EC50, lay at 54 nM. This EC50 lies about 2.5-fold higher than the previous one.

`COCCN1CCc2c(CCC(=O)N(CCN3CCC(F)(F)CC3)Cc3ncccc3C(F)(F)F)cccc2C1` [Example 340, N-[2-(4,4-Difluoro-piperidin-1-yl)-ethyl]-3-[2-(2-methoxy-ethyl)-1,2,3,4-tetrahydro-isoquinolin-5-yl]-N-(3-trifluoromethyl-pyridin-2-ylmethyl)-propionamide] returned an EC50 of 277 nM.

For the molecule `CC(C)C(=O)N1CCc2c(cccc2NCC(=O)N(CCN(C)C)Cc2ccccc2)C1` [compound 115], a half-maximal effect (EC50) was put at 54 nM. This EC50 lies about 5.1-fold lower than the previous one.

Consider `CCN1CCc2c(/C=C/C(=O)N(CCN(C)C)Cc3ccccc3Cl)cccc2C1` [compound 145, (E)-N-(2-Chloro-benzyl)-N-(2-dimethylamino-ethyl)-3-(2-ethyl-1,2,3,4-tetrahydro-isoquinolin-5-yl)-acrylamide], for which the concentration giving a half-maximal response (EC50) came to 8 nM. This EC50 lies about 6.8-fold lower than the previous one.

In turn, `CN(C)CCN(Cc1ncccc1C(F)(F)F)C(=O)CNc1cccc2c1CCN(C1COC1)C2` [Example 367, N-(2-Dimethylamino-ethyl)-2-(2-oxetan-3-yl-1,2,3,4-tetrahydro-isoquinolin-5-ylamino)-N-(3-trifluoromethyl-pyridin-2-ylmethyl)-acetamide] came in with an EC50 of 115 nM. Compared with the last molecule, the EC50 is about 14-fold higher.

With `COCCN1CCc2c(cccc2NCC(=O)N(Cc2ccccc2C(F)(F)F)CC(C)(C)O)C1` [Example 301, N-(2-Hydroxy-2-methyl-propyl)-2-[2-(2-methoxy-ethyl)-1,2,3,4-tetrahydro-isoquinolin-5-ylamino]-N-(2-trifluoromethyl-benzyl)-acetamide], the EC50 was found to be 208 nM.

`Cc1cccc(CN(C(=O)/C=C/c2cccc3c2CCN(CC2CC2)C3)C2CC2)c1C` [compound 141]: it took 98 nM to reach a half-maximal effect (EC50).

Molecule `CN(C)CCN(Cc1ncccn1)C(=O)CNc1cccc2c1CCN(CC1CC1)C2` [Example 260, 2-(2-Cyclopropylmethyl-1,2,3,4-tetrahydro-isoquinolin-5-ylamino)-N-(2-dimethylamino-ethyl)-N-pyrimidin-2-ylmethyl-acetamide] returned an EC50 of 125 nM.

As for `CN(C)CCN(Cc1nccs1)C(=O)CNc1cccc2c1CCN(CC1CC1)C2` [Example 265, 2-(2-Cyclopropylmethyl-1,2,3,4-tetrahydro-isoquinolin-5-ylamino)-N-(2-dimethylamino-ethyl)-N-thiazol-2-ylmethyl-acetamide], the concentration for a half-maximal effect (EC50) amounted to 48 nM.

For `COCCN(Cc1ccccc1C(F)(F)F)C(=O)CNc1cccc2c1CCN(CC1CC1)C2` [Example 225, 2-(2-Cyclopropylmethyl-1,2,3,4-tetrahydro-isoquinolin-5-ylamino)-N-(2-methoxy-ethyl)-N-(2-trifluoromethyl-benzyl)-acetamide], the EC50 was 29 nM.

In the case of `CN(C)CCN(Cc1ccc(OC(F)(F)F)cc1)C(=O)CNc1cccc2c1CN(CC1CC1)CC2` [compound 473], the half-maximal effective concentration (EC50) was 102 nM. Against the preceding molecule, the EC50 is about 3.5-fold higher.

Molecule `CCC(=O)N1CCc2c(cccc2NCC(=O)N(CCN(C)C)Cc2ccccc2C)C1` [Example 15, N-(2-Dimethylamino-ethyl)-N-(2-methyl-benzyl)-2-(2-propionyl-1,2,3,4-tetrahydro-isoquinolin-5-ylamino)-acetamide] yielded a 50% effective concentration (EC50) of 15 nM.

`O=C(CNc1cccc2c1CCN(CC1CC1)C2)N(Cc1ccccc1)C1CCS(=O)(=O)C1` (racemic) [Example 70, rac-N-Benzyl-2-(2-cyclopropylmethyl-1,2,3,4-tetrahydro-isoquinolin-5-ylamino)-N-(1,1-dioxo-tetrahydro-1|6-thiophen-3-yl)-acetamide] registered a half-maximal effective concentration (EC50) of 189 nM.

On to `CN(C)CCN(Cc1ccc(Cl)cn1)C(=O)CNc1cccc2c1CCN(CC1CC1)C2` [Example 261, N-(5-Chloro-pyridin-2-ylmethyl)-2-(2-cyclopropylmethyl-1,2,3,4-tetrahydro-isoquinolin-5-ylamino)-N-(2-dimethylamino-ethyl)-acetamide], for which the EC50 amounted to 47 nM.

`CC(c1ccccc1C(F)(F)F)N(CCN(C)C)C(=O)CNc1cccc2c1CCN(CC1CC1)C2` (racemic) [Example 58, rac-2-(2-Cyclopropylmethyl-1,2,3,4-tetrahydro-isoquinolin-5-ylamino)-N-(2-dimethylamino-ethyl)-N-[1-(2-trifluoromethyl-phenyl)-ethyl]-acetamide] displayed an EC50 of 16 nM.

`CCN1CCc2cccc(NCC(=O)N(CCN(C)C)Cc3ncccc3Cl)c2C1` [compound 511, N-(3-Chloro-pyridin-2-ylmethyl)-N-(2-dimethylamino-ethyl)-2-(2-ethyl-1,2,3,4-tetrahydro-isoquinolin-8-ylamino)-acetamide]: the EC50 amounted to 29 nM.

Take `CN(C)CCN(Cc1ncccc1Br)C(=O)CNc1cccc2c1CCN(CC1CC1)C2` [Example 236, N-(3-Bromo-pyridin-2-ylmethyl)-2-(2-cyclopropylmethyl-1,2,3,4-tetrahydro-isoquinolin-5-ylamino)-N-(2-dimethylamino-ethyl)-acetamide]: the 50% effective concentration (EC50) was determined as 3 nM.

On to `O=C(/C=C/c1cccc2c1CCN(CC1CC1)C2)N(CCc1ccc(F)cc1)Cc1ccccc1` [compound 148], for which the concentration giving a half-maximal response (EC50) was 54 nM.

`CN(C)CCN(Cc1ncccc1Cl)C(=O)CNc1cccc2c1CCN(CC1CC1)C2` [Example 39, N-(3-Chloro-pyridin-2-ylmethyl)-2-(2-cyclopropylmethyl-1,2,3,4-tetrahydro-isoquinolin-5-ylamino)-N-(2-dimethylamino-ethyl)-acetamide] gave a half-maximal effective concentration (EC50) of 4 nM.

`NC(=O)CCN(Cc1ccccc1)C(=O)CNc1cccc2c1CCN(CC1CC1)C2` [Example 68, 3-{Benzyl-[2-(2-cyclopropylmethyl-1,2,3,4-tetrahydro-isoquinolin-5-ylamino)-acetyl]-amino}-propionamide] showed an EC50 of 330 nM.

For the molecule `CCN1CCc2cccc(NCC(=O)N(CCN(C)C)Cc3c(F)cccc3F)c2C1` [compound 524, N-(2,6-Difluoro-benzyl)-N-(2-dimethylamino-ethyl)-2-(2-ethyl-1,2,3,4-tetrahydro-isoquinolin-8-ylamino)-acetamide], the concentration giving a half-maximal response (EC50) came out at 27 nM.

Consider `C=CCN1CCc2cccc(NCC(=O)N(CCN(C)C)Cc3ccccc3C(F)(F)F)c2C1` [compound 466, 2-(2-Allyl-1,2,3,4-tetrahydro-isoquinolin-8-ylamino)-N-(2-dimethylamino-ethyl)-N-(2-trifluoromethyl-benzyl)-acetamide], for which the EC50 was determined as 13 nM.

In turn, `CN(C)CCN(Cc1ccccc1)C(=O)CNc1cccc2c1C(=O)N(C)CC2` [compound 184] showed a 50% effective concentration (EC50) of 270 nM.

For `CNCCN(Cc1ncccc1C(F)(F)F)C(=O)CNc1cccc2c1CCN(C(=O)C(C)C)C2` [compound 412, 2-(2-Isobutyryl-1,2,3,4-tetrahydro-isoquinolin-5-ylamino)-N-(2-methylamino-ethyl)-N-(3-trifluoromethyl-pyridin-2-ylmethyl)-acetamide], the EC50 worked out at 20 nM.

`COCCN1CCc2c(CCC(=O)N(Cc3ncccc3Cl)CC(C)(C)O)cccc2C1` [Example 347, N-(3-Chloro-pyridin-2-ylmethyl)-N-(2-hydroxy-2-methyl-propyl)-3-[2-(2-methoxy-ethyl)-1,2,3,4-tetrahydro-isoquinolin-5-yl]-propionamide] showed a concentration giving a half-maximal response (EC50) of 445 nM.

For the molecule `CCN(CC)CCN(Cc1ccccc1C(F)(F)F)C(=O)CNc1cccc2c1CCN(CC1CC1)C2` [Example 60, 2-(2-Cyclopropylmethyl-1,2,3,4-tetrahydro-isoquinolin-5-ylamino)-N-(2-diethylamino-ethyl)-N-(2-trifluoromethyl-benzyl)-acetamide], a half-maximal effect (EC50) was put at 1 nM.

The molecule `CC(C)CN1CCc2cccc(NCC(=O)N(CCN(C)C)Cc3ccccc3)c2C1` [compound 189, N-Benzyl-N-(2-dimethylamino-ethyl)-2-(2-isobutyl-1,2,3,4-tetrahydro-isoquinolin-8-ylamino)-acetamide] displayed a concentration for a half-maximal effect (EC50) of 37 nM.

Molecule `CN(C)CCN(Cc1ccccc1C(F)(F)F)C(=O)CNc1cccc2c1CCN(CC1CC1)C2=O` [Example 315, 2-(2-Cyclopropylmethyl-1-oxo-1,2,3,4-tetrahydro-isoquinolin-5-ylamino)-N-(2-dimethylamino-ethyl)-N-(2-trifluoromethyl-benzyl)-acetamide] yielded a concentration giving a half-maximal response (EC50) of 5 nM. This EC50 is about 7.4-fold lower than that of the molecule before.

The molecule `C=CCN(C)CCN(Cc1ccccc1C(F)(F)F)C(=O)CNc1cccc2c1CN(CC=C)CC2` [compound 463, N-[2-(Allyl-methyl-amino)-ethyl]-2-(2-allyl-1,2,3,4-tetrahydro-isoquinolin-8-ylamino)-N-(2-trifluoromethyl-benzyl)-acetamide] gave an EC50 of 16 nM.

`CNCCN(Cc1ccccc1C(F)(F)F)C(=O)CNc1cccc2c1CCN(C(=O)C1CCOC1)C2` (racemic) [compound 392] returned an EC50 of 30 nM.

Molecule `CN(C)CCN(Cc1cccc(OC(F)(F)F)c1)C(=O)CNc1cccc2c1CCN(CC1CC1)C2` [Example 221, 2-(2-Cyclopropylmethyl-1,2,3,4-tetrahydro-isoquinolin-5-ylamino)-N-(2-dimethylamino-ethyl)-N-(3-trifluoromethoxy-benzyl)-acetamide] showed an EC50 of 9 nM.

As for `CC1c2cccc(NCC(=O)N(CCN(C)C)Cc3ccccc3C(F)(F)F)c2CCN1CC1CC1` (racemic) [Example 211, rac-2-((2-(Cyclopropylmethyl)-1-methyl-1,2,3,4-tetrahydroisoquinolin-5-yl)amino)-N-(2-(dimethylamino)ethyl)-N-(2-(trifluoromethyl)benzyl)acetamide], the EC50 was determined as 2 nM. This EC50 lies about 4.5-fold lower than the previous one.
